Laboratory results published in PubChem BioAssay AID2060603 (Molecular Pharmacology Branch, DTP, NCI, 2025).
Where “and” joins values, the source holds several entries; their conditions need not be identical. Identical values can stand only once.

Test system: 422866-222-R5-J1-PDC spheroid viability
Assay: Anticancer human tumor 422866-222-R5-J1-PDC patient-derived pancreatic adenocarcinoma cell line growth inhibition [CLK]
Conditions: spheroids with HUVEC and MSC; for viability, T/C: stronger effect = lower value
In short: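 Multi-cell-type spheroids combined patient-derived tumor cells with HUVEC endothelial cells and human mesenchymal stem cells. Paired agents were dosed in half-log steps down from about clinical Cmax, or from 10 microM where Cmax was unknown.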

[1] = curve of first compound, second compound 0.0316 µM
[2] = curve of first compound, second compound 0.1 µM
[3] = curve of first compound, second compound 0.316 µM
[4] = curve of first compound, second compound 1 µM
[5] = curve of first compound, second compound 3.16 µM
[6] = curve of first compound, second compound 10 µM
[7] = second compound 0.0316 µM, first compound 0.0316 µM
[8] = second compound 0.0316 µM, first compound 0.1 µM
[9] = second compound 0.0316 µM, first compound 0.316 µM
[10] = second compound 0.0316 µM, first compound 1 µM
[11] = second compound 0.0316 µM, first compound 3.16 µM
[12] = second compound 0.0316 µM, first compound 10 µM
[13] = second compound 0.1 µM, first compound 0.0316 µM
[14] = second compound 0.1 µM, first compound 0.1 µM
[15] = second compound 0.1 µM, first compound 0.316 µM
[16] = second compound 0.1 µM, first compound 1 µM
[17] = second compound 0.1 µM, first compound 3.16 µM
[18] = second compound 0.1 µM, first compound 10 µM
[19] = second compound 0.316 µM, first compound 0.0316 µM
[20] = second compound 0.316 µM, first compound 0.1 µM
[21] = second compound 0.316 µM, first compound 0.316 µM
[22] = second compound 0.316 µM, first compound 1 µM
[23] = second compound 0.316 µM, first compound 3.16 µM
[24] = second compound 0.316 µM, first compound 10 µM
[25] = second compound 1 µM, first compound 0.0316 µM
[26] = second compound 1 µM, first compound 0.1 µM
[27] = second compound 1 µM, first compound 0.316 µM
[28] = second compound 1 µM, first compound 1 µM
[29] = second compound 1 µM, first compound 3.16 µM
[30] = second compound 1 µM, first compound 10 µM
[31] = second compound 3.16 µM, first compound 0.0316 µM
[32] = second compound 3.16 µM, first compound 0.1 µM
[33] = second compound 3.16 µM, first compound 0.316 µM
[34] = second compound 3.16 µM, first compound 1 µM
[35] = second compound 3.16 µM, first compound 3.16 µM
[36] = second compound 3.16 µM, first compound 10 µM
[37] = second compound 10 µM, first compound 0.0316 µM
[38] = second compound 10 µM, first compound 0.1 µM
[39] = second compound 10 µM, first compound 0.316 µM
[40] = second compound 10 µM, first compound 1 µM
[41] = second compound 10 µM, first compound 3.16 µM
[42] = second compound 10 µM, first compound 10 µM
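Note: spheroids exposed to agents for seven days before readout.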

Nc1ccn(C2OC(CO)C(O)C2(F)F)c(=O)n1 (stereo not drawn) + CNC(=O)c1ccc(Nc2nc(OC3CCCC3)c3c(-c4ccc5nc(C)oc5c4)c[nH]c3n2)c(OC)c1 gave an IC50 [1] of 939 nM, an IC50 [2] of 125 nM and an IC50 [3] of 86 nM. It also gave an IC50 [4] of 119 nM, an IC50 [5] of 158 nM and an IC50 [6] of 72.4 nM. For the same compound, the viability, T/C [7] was 61.4%, the viability, T/C [8] was 57.8% and the viability, T/C [9] was 53.7%. The viability, T/C [10] was 50%, the viability, T/C [11] was 45.3% and the viability, T/C [12] was 39.6%. It also gave a viability, T/C [13] of 90.4%, a viability, T/C [14] of 50.8% and a viability, T/C [15] of 44.9%. For the same compound, the viability, T/C [16] was 46.1%, the viability, T/C [17] was 36.3% and the viability, T/C [18] was 42.1%. The viability, T/C [19] was 73.8%, the viability, T/C [20] was 46.7% and the viability, T/C [21] was 37.8%. The viability, T/C [22] was 40.6%, the viability, T/C [23] was 36% and the viability, T/C [24] was 37.5%. It also gave a viability, T/C [25] of 69.8%, a viability, T/C [26] of 51.4% and a viability, T/C [27] of 42.8%. It also gave a viability, T/C [28] of 32.2%, a viability, T/C [29] of 39.2% and a viability, T/C [30] of 43.8%. It also gave a viability, T/C [31] of 55.2%, a viability, T/C [32] of 60.7% and a viability, T/C [33] of 42.1%. For the same compound, the viability, T/C [34] was 40.4%, the viability, T/C [35] was 33.7% and the viability, T/C [36] was 34.1%. The viability, T/C [37] was 67.8%, the viability, T/C [38] was 42.9% and the viability, T/C [39] was 40.3%. It also gave a viability, T/C [40] of 33.7%, a viability, T/C [41] of 39.2% and a viability, T/C [42] of 40.6%.

C=C(F)C(=O)N1CCN(c2nc(OCC3CCCN3C)nc3c2CCN(c2cccc4cccc(Cl)c24)C3)CC1CC#N (stereo not drawn) + CN1CCN(c2cc(C(=O)Nc3cc4cc(-c5cnn(C)c5)ccc4cn3)ccn2)CC1 gave an IC50 [1] of less than 31.6 nM, an IC50 [2] of less than 31.6 nM and an IC50 [3] of less than 31.6 nM. For the same compound, the IC50 [4] was less than 31.6 nM, the IC50 [5] was less than 31.6 nM and the IC50 [6] was less than 31.6 nM. For the same compound, the viability, T/C [7] was 40.6%, the viability, T/C [8] was 29.3% and the viability, T/C [9] was 27%. It also gave a viability, T/C [10] of 26.2%, a viability, T/C [11] of 15.9% and a viability, T/C [12] of 2.17%. The viability, T/C [13] was 45.5%, the viability, T/C [14] was 33.9% and the viability, T/C [15] was 29.3%. For the same compound, the viability, T/C [16] was 25.1%, the viability, T/C [17] was 19.9% and the viability, T/C [18] was 1.79%. It also gave a viability, T/C [19] of 42.4%, a viability, T/C [20] of 30.6% and a viability, T/C [21] of 27.9%. It also gave a viability, T/C [22] of 20.1%, a viability, T/C [23] of 20% and a viability, T/C [24] of 0.13%. It also gave a viability, T/C [25] of 19.9%, a viability, T/C [26] of 18.5% and a viability, T/C [27] of 18.6%. For the same compound, the viability, T/C [28] was 16.4%, the viability, T/C [29] was 10.2% and the viability, T/C [30] was 0.1%. The viability, T/C [31] was 4.24%, the viability, T/C [32] was 4.94% and the viability, T/C [33] was 4.57%. The viability, T/C [34] was 3.86%, the viability, T/C [35] was 4.64% and the viability, T/C [36] was 0.71%. The viability, T/C [37] was 3.87%, the viability, T/C [38] was 0.7% and the viability, T/C [39] was 0.93%. The viability, T/C [40] was 0.72%, the viability, T/C [41] was 0.46% and the viability, T/C [42] was 0.15%.

C#Cc1c(F)ccc2cc(O)cc(-c3ncc4c(N5CC6CCC(C5)N6)nc(OCC56CCCN5CC(F)C6)nc4c3F)c12 (stereo not drawn) + CNC(=O)c1ccc(Nc2nc(OC3CCCC3)c3c(-c4ccc5nc(C)oc5c4)c[nH]c3n2)c(OC)c1 gave an IC50 [1] of 1070 nM, an IC50 [2] of 735 nM and an IC50 [3] of 298 nM. The IC50 [4] was 223 nM, the IC50 [5] was 181 nM and the IC50 [6] was 202 nM. For the same compound, the viability, T/C [7] was 102%, the viability, T/C [8] was 93.5% and the viability, T/C [9] was 70.8%. For the same compound, the viability, T/C [10] was 53.7%, the viability, T/C [11] was 32.1% and the viability, T/C [12] was 26.1%. It also gave a viability, T/C [13] of 81.5%, a viability, T/C [14] of 67.9% and a viability, T/C [15] of 61.9%. It also gave a viability, T/C [16] of 46.3%, a viability, T/C [17] of 33.9% and a viability, T/C [18] of 25.6%. It also gave a viability, T/C [19] of 71.7%, a viability, T/C [20] of 60.8% and a viability, T/C [21] of 47.2%. It also gave a viability, T/C [22] of 41.6%, a viability, T/C [23] of 33.8% and a viability, T/C [24] of 26.8%. For the same compound, the viability, T/C [25] was 58.5%, the viability, T/C [26] was 58.7% and the viability, T/C [27] was 45.1%. For the same compound, the viability, T/C [28] was 37.3%, the viability, T/C [29] was 28.5% and the viability, T/C [30] was 24.6%. For the same compound, the viability, T/C [31] was 62.7%, the viability, T/C [32] was 51.9% and the viability, T/C [33] was 49.6%. It also gave a viability, T/C [34] of 32.8%, a viability, T/C [35] of 39.4% and a viability, T/C [36] of 24%. It also gave a viability, T/C [37] of 64.9%, a viability, T/C [38] of 50.5% and a viability, T/C [39] of 46.4%. It also gave a viability, T/C [40] of 42.5%, a viability, T/C [41] of 30.5% and a viability, T/C [42] of 21.9%.

For C=CC(=O)N1CCN(c2nc(=O)n(-c3c(C)ccnc3C(C)C)c3nc(-c4c(O)cccc4F)c(F)cc23)C(C)C1 (stereo not drawn), the viability, T/C (compound 0.0316 µM) was 33% and 35.7%, the viability, T/C (compound 0.1 µM) was 27% and 28.4% and the viability, T/C (compound 0.316 µM) was 24.9% and 25.6%. For the same compound, the viability, T/C (compound 1 µM) was 27.6% and 25.6%, the viability, T/C (compound 3.16 µM) was 32.8% and 25.4% and the viability, T/C (compound 10 µM) was 25.2% and 30%. The IC50 (curve of compound) was less than 31.6 nM.
